Source: patent publication US7763615B2, “Ecteinascidin analogs for use as antitumour agents” (priority 2001, dated 2010)
pIC50: −log10 of the molar value. Where two headings read alike, the source gives them in different places.

What was measured:
A549 = test: cells; type: cell-based; conditions: for GI50 / CC50 / IC (TGI) / TGI: A549, 48 hours exposure, SRB; for GI50: read-out: GI50; for CC50: read-out: LC50 (the source's name); for IC (TGI): read-out: TGI
Source text: (§1) The finality of these assays is to interrupt the growth of a “in vitro” tumor cell culture by means of a continued exhibition of the cells to the sample to be testing.
(§2) A colorimetric type of assay, using sulphorhodamine B (SRB) reaction has been adapted for a quantitative measurement of cell growth and viability [following the technique described by Philip Skehan, et al. (1990), New colorimetric cytotoxicity assay for anticancer drug screening, J. Natl. Cancer Inst., 82:1107-1112]
(§3) This form of the assay employs 96 well cell culture microplates of 9 mm diameter (Faircloth, 1988; Mosmann, 1983). Most of the cell lines are obtained from American Type Culture Collection (ATCC) derived from different human cancer types.
(§4) Cells are maintained in RPMI 1640 10% FBS, supplemented with 0.1 g/l penicillin and 0.1 g/l streptomycin sulphate and then incubated at 37° C., 5% CO2 and 98% humidity. For the experiments, cells were harvested from subconfluent cultures using trypsin and resuspended in fresh medium before plating.
(§5) Cells are seeded in 96 well microtiter plates, at 5×10^3 cells per well in aliquots of 195 μl medium, and they are allowed to attach to the plate surface by growing in drug free medium for 18 hours. Afterward, samples are added in aliquots of 5 μl in a ranging from 10 to 10^−8 μg/ml, dissolved in DMSO/EtOH/PBS (0.5:0.5:99). After 48 hours exposure, the antitumor effect are measured by the SRB methodology: cells are fixed by adding 50 μl of cold 50% (wt/vol) trichloroacetic acid (TCA) and incubating for 60 minutes at 4° C. Plates are washed with deionized water and dried. One hundred μl of SRB solution (0.4% wt/vol in 1% acetic acid) is added to each microtiter well and incubated for 10 minutes at room temperature. Unbound SRB is removed by washing with 1% acetic acid. Plates are air dried and bound stain is solubilized with Tris buffer. Optical densities are read on a automated spectrophotometric plate reader at a single wavelength of 490 nm.
(§6) The values for mean+/− SD of data from triplicate wells are calculated. Some parameters for cellular responses can be calculated: GI=growth inhibition, TGI=total growth inhibition (cytostatic effect) and LC=cell killing (cytotoxic effect).

HT29 = test: cells; type: cell-based; conditions: for GI50 / IC (TGI) / CC50 / TGI: HT29, 48 hours exposure, SRB; for CC50: read-out: LC50 (the source's name)
Source text: as §1, §2, §3, §4, §5, §6

SMILES | pIC50 (A549; Homo sapiens, A549) | pIC50 (HT29; Homo sapiens, HT-29, HT29) | GI50 (A549; Homo sapiens, A549, 48 h) [µM] | CC50 (A549; Homo sapiens, A549, 48 h) [µM] | IC (TGI) (A549; Homo sapiens, A549, 48 h) [µM] | GI50 (HT29; Homo sapiens, HT-29, 48 h) [µM] | IC (TGI) (HT29; Homo sapiens, HT-29, 48 h) [µM] | CC50 (HT29; Homo sapiens, HT-29, 48 h) [µM] | GI50 (HT29) [µM] | TGI (HT29) [Molar] | TGI (A549) [Molar] | GI50 (A549) [µM] | CC50 (A549) [µM] | CC50 (HT29) [µM]
COc1c(C)cc2c(c1O)[C@@H]1C3[C@@H]4SC[C@]5(NCCc6c5[nH]c5ccccc65)C(=O)COC[C@@H](c5c6c(c(C)c(OC(C)=O)c54)OCO6)N3[C@@H](C#N)[C@H](C2)N1C (some centres unmarked) [Compound 1] | 8.88 | 8.88 | – | – | – | – | – | – | – | – | – | – | – | –
COc1ccc2[nH]c3c(c2c1)CCN[C@]31CS[C@@H]2c3c(OC(C)=O)c(C)c4c(c3[C@H](COCC1=O)N1C2[C@H]2c3c(cc(C)c(OC)c3O)C[C@@H]([C@@H]1C#N)N2C)OCO4 (some centres unmarked) [Compound 2] | – | – | 0.00063 | 63 | 0.0063 | 0.00126 | 0.00126 | 63 | – | – | – | – | – | –
COc1c(C)cc2c(c1O)[C@@H]1C3[C@@H]4SC[C@]5(NCCc6c5[nH]c5c(OCc7ccccc7)cccc65)C(=O)COC[C@@H](c5c6c(c(C)c(OC(C)=O)c54)OCO6)N3[C@@H](C#N)[C@H](C2)N1C (some centres unmarked) [Compound 3] | – | – | 0.345 | 57.5 | 3.45 | 0.23 | 0.23 | 57.5 | – | – | – | – | – | –
COc1c(C)cc2c(c1O)[C@@H]1C3[C@@H]4SC[C@]5(NCCc6c5[nH]c5ccc(OCc7ccccc7)cc65)C(=O)COC[C@@H](c5c6c(c(C)c(OC(C)=O)c54)OCO6)N3[C@@H](C#N)[C@H](C2)N1C (some centres unmarked) [Compound 4] | – | – | 2.3 | 11.5 | 6.9 | 2.3 | 2.3 | 11.5 | – | – | – | – | – | –
COc1c(C)cc2c(c1O)[C@@H]1C3[C@@H]4SC[C@]5(NCCc6c5[nH]c5ccc(C)cc65)C(=O)COC[C@@H](c5c6c(c(C)c(OC(C)=O)c54)OCO6)N3[C@@H](C#N)[C@H](C2)N1C (some centres unmarked) [Compound 5] | – | – | 0.0129 | 12.9 | 0.129 | 0.0129 | 0.0129 | 5.14 | – | – | – | – | – | –
COc1c(C)cc2c(c1O)[C@@H]1C3[C@@H]4SC[C@]5(NCCc6c5[nH]c5ccc(O)cc65)C(=O)COC[C@@H](c5c6c(c(C)c(OC(C)=O)c54)OCO6)N3[C@@H](C#N)[C@H](C2)N1C (some centres unmarked) [Compound 6] | – | – | 0.00513 | 12.8 | 0.0513 | 0.00513 | 0.00513 | 5.13 | – | – | – | – | – | –
COc1c(C)cc2c(c1O)[C@@H]1C3[C@@H]4SC[C@]5(NCCc6c5[nH]c5cc(F)ccc65)C(=O)COC[C@@H](c5c6c(c(C)c(OC(C)=O)c54)OCO6)N3[C@@H](C#N)[C@H](C2)N1C (some centres unmarked) [Compound 7] | – | – | 0.767 | 1.28 | 0.128 | 0.0639 | 0.0639 | 1.28 | – | – | – | – | – | –
COc1c(C)cc2c(c1O)[C@@H]1C3[C@@H]4SC[C@]5(C(=O)COC[C@@H](c6c7c(c(C)c(OC(C)=O)c64)OCO7)N3[C@@H](C#N)[C@H](C2)N1C)c1[nH]c2ccc(O)cc2c1CCN5C (some centres unmarked) [Compound 8] | – | – | 0.00252 | 12.6 | 0.0101 | 0.00252 | 0.00252 | 5.04 | – | – | – | – | – | –
COc1ccc2c3c([nH]c2c1)[C@@]1(CS[C@@H]2c4c(OC(C)=O)c(C)c5c(c4[C@H](COCC1=O)N1C2[C@H]2c4c(cc(C)c(OC)c4O)C[C@@H]([C@@H]1C#N)N2C)OCO5)NCC3 (some centres unmarked) [Compound 9] | – | – | 0.0252 | 8.82 | 0.101 | 0.378 | 0.378 | 12.6 | – | – | – | – | – | –
COc1c(C)cc2c(c1O)[C@@H]1C3[C@@H]4SC[C@]5(NCCc6c5[nH]c5ccc(F)cc65)C(=O)COC[C@@H](c5c6c(c(C)c(OC(C)=O)c54)OCO6)N3[C@@H](C#N)[C@H](C2)N1C (some centres unmarked) [Compound 10] | – | – | 0.0391 | 12.8 | 0.128 | 0.0403 | 12.8 | 12.8 | – | – | – | – | – | –
COc1c(C)cc2c(c1O)[C@@H]1C3[C@@H]4SC[C@]5(NCCc6c5[nH]c5c(C)cccc65)C(=O)COC[C@@H](c5c6c(c(C)c(OC(C)=O)c54)OCO6)N3[C@@H](C#N)[C@H](C2)N1C (some centres unmarked) [Compound 11] | – | – | 0.0189 | 0.129 | 0.05 | 0.0309 | 0.129 | 12.9 | – | – | – | – | – | –
COc1c(C)cc2c(c1O)[C@@H]1C3[C@@H]4SC[C@]5(NC(C)Cc6c5[nH]c5ccc(O)cc65)C(=O)COC[C@@H](c5c6c(c(C)c(OC(C)=O)c54)OCO6)N3[C@@H](C#N)[C@H](C2)N1C (some centres unmarked) [Compound 12] | – | – | 0.00728 | 12.6 | 0.0835 | – | – | 12.6 | 0.0137 | 1.26E−07 | – | – | – | –
COc1c(C)cc2c(c1O)[C@@H]1C3[C@@H]4SC[C@]5(NC(C)Cc6c5[nH]c5ccc(O)cc65)C(=O)COC[C@@H](c5c6c(c(C)c(OC(C)=O)c54)OCO6)N3[C@@H](C#N)[C@H](C2)N1C (some centres unmarked) [Compound 13] | – | – | – | – | – | – | – | – | 0.333 | 1.26E−06 | 6.79E−08 | 0.00631 | 12.6 | 12.6
COc1c(C)cc2c(c1O)[C@@H]1C3[C@@H]4SC[C@]5(C(=O)COC[C@@H](c6c7c(c(C)c(OC(C)=O)c64)OCO7)N3[C@@H](C#N)[C@H](C2)N1C)c1[nH]c2ccccc2c1CCN5C (some centres unmarked) [Compound 15] | – | – | – | – | – | – | – | 13.1 | 0.00416 | 1.31E−08 | 1.31E−08 | 0.00478 | 1.27 | –
COc1c(C)cc2c(c1O)[C@@H]1C3[C@@H]4SC[C@]5(NC(C)Cc6c5[nH]c5ccc(F)cc65)C(=O)COC[C@@H](c5c6c(c(C)c(OC(C)=O)c54)OCO6)N3[C@@H](C#N)[C@H](C2)N1C (some centres unmarked) [Compound 16] | – | – | – | 4.44 | – | 0.0428 | – | 12.8 | – | 1.28E−07 | 1.28E−07 | 0.0367 | – | –
COc1c(C)cc2c(c1O)[C@@H]1C3[C@@H]4SC[C@]5(NC(C)Cc6c5[nH]c5ccc(F)cc65)C(=O)COC[C@@H](c5c6c(c(C)c(OC(C)=O)c54)OCO6)N3[C@@H](C#N)[C@H](C2)N1C (some centres unmarked) [Compound 17] | – | – | – | – | – | – | – | – | 0.0222 | 1.28E−08 | 4.41E−08 | 0.00539 | 6.67 | 12.8
COc1c(C)cc2c(c1O)[C@@H]1C3[C@@H]4SC[C@]5(NC(C)Cc6c5[nH]c5ccccc65)C(=O)COC[C@@H](c5c6c(c(C)c(OC(C)=O)c54)OCO6)N3[C@@H](C#N)[C@H](C2)N1C (some centres unmarked) [Compound 18] | – | – | – | 12.9 | – | 0.00562 | 0.129 | 12.9 | – | – | 1.29E−07 | 0.00677 | – | –
COc1c(C)cc2c(c1O)[C@@H]1C3[C@@H]4SC[C@]5(NC(C)Cc6c5[nH]c5ccccc65)C(=O)COC[C@@H](c5c6c(c(C)c(OC(C)=O)c54)OCO6)N3[C@@H](C#N)[C@H](C2)N1C (some centres unmarked) [Compound 19] | – | – | – | – | – | – | – | – | 0.00445 | 1.29E−07 | 1.29E−08 | 0.00327 | 12.9 | 12.9
